Experimental data from patent publication US20240392302A1, “METHOD FOR DETECTING AND QUANTIFYING RNA” (FLUORESCENCE DIAGNOSIS (SHANGHAI) BIOTECH COMPANY LTD., priority 2021, published 2024).

What was measured:
[1] = Function detection of the nucleic acid aptamer: fluorescence activation of I-5-14 by N16-1, its mutants and base-modified forms; assay type: biochemical; settings: for fluorescence activation effect of base-modified N16-1 for I-5-14: base-modified aptamers; for Activation Multiple: 0.5 μM I-5-14 with 2.5 μM RNA
Procedure: A primer containing T7 promoter was used for amplification of corresponding cDNA of RNA to be detected, and T7 RNA polymerase (purchased from Fermentas) was used for obtaining RNA by means of transcription with recovered double-stranded cDNA as a template. 10 μL of 3 M NaAc and 115 μL of DEPC water were added into 20 μL of transcription system, and were mixed well before 150 μL of phenol chloroform-[…] mixture (phenol:chloroform:[…]=25:24:1) was added; then the mixture was mixed well by means of oscillation, and the supernatant was taken after centrifugation at 10,000 rpm for 5 min. An equal volume of chloroform solution was added and was mix well by means of oscillation, and then the supernatant was taken after centrifugation at 10,000 rpm for 5 min; the process was repeated once. 2.5 times the volume of anhydrous ethanol was added into the supernatant, and the mixture was placed in a refrigerator at −20° C. for 30 min and was subject to centrifugation at 12,000 rpm at 4° C. for 5 min; then the supernatant was removed, and the precipitation was cleaned twice with 75% pre-cooled anhydrous ethanol. After volatilization of the ethanol, the precipitation was re-suspended with an appropriate amount of screening buffer, and then was treated at 75° C. for 5 min and was placed at room temperature for more than 10 min for subsequent experiments.
(§1) Nucleic acid aptamer molecules of N16 or N16 mutants were prepared by using the commonly-used experimental method (I), 2.5 μM of nucleic acid aptamer molecules and 0.5 μM of fluorophore molecules were incubated in a detection buffer (40 mM of HEPES, pH 7.4, 125 mM of KCl, 5 mM of MgCl2, 5% DMSO), and the maximum excitation peak and the maximum emission peak of the fluorescence of the nucleic acid aptamer-fluorophore molecular complex were detected with Synergy Neo2 multifunctional enzyme-labeler. Synergy Neo2 multifunctional enzyme-labeler was used again to detect fluorescence intensity of the nucleic acid aptamer-fluorophore molecular complex under its maximum excitation and emission conditions, the control sample ([…] of fluorophore molecules without nucleic acid aptamer) was also measured under the same conditions, and the ratio of fluorescence intensity was calculated. For example, as for fluorescence of the complex formed by 2.5 μM of N16-1 nucleic acid aptamer and 0.5 μM of I-5-14 fluorophore molecules, the maximum excitation peak is 512 nm and the maximum emission peak is 574 nm. It was detected by the Synergy Neo2 multifunctional enzyme-labeler that the fluorescence intensity of the complex at an excitation condition of 512±10 nm and an emission condition of 574 nm±10 nm was 49,088, while the fluorescence intensity of the control (0.5 μM of I-5-14 fluorophore molecules) under the same detection conditions was 399, so the activation multiple of N16-1 nucleic acid aptamer to I-5-14 fluorophore molecules was 123.
According to the results, most N16-1 mutants with a single base mutation retained a relatively strong fluorescence activation effect (no smaller than 2 times) on I-5-14 (Table 2). Some N16-1 mutants with 2 to 5 base mutations still retained a relatively strong fluorescence activation effect (greater than 20 times) for I-5-14 (Table 3). In a word, many single-base and multi-base mutants of N16-1 might still retain the aptamer function of activating the 1-5-14 fluorophore molecules.

[2] = system: 293T/17 cells expressing F30-N16-1; experiment: Labeling of RNA in mammalian cells by F30-N16-1 and I-5-14; assay type: cell-based; settings: 1 μm of I-5-14 added 36 h after transfection
Procedure: Main imaging experiments in the examples were carried out by using a confocal laser microscope Leica SP8 equipped with white laser, and an HCXPL APO 63×1.47 oil mirror and a HyD detector were used.
In order to detect labeling of RNA in mammalian cells by using F30-N16-1 and I-5-14, a mammalian cell expression plasmid expressing F30-N16-1 (SEQ ID NO: 2) was constructed. F30-N16-1 in Example 9 was amplified with primers P1, P2, and P3, respectively.
These fragments were inserted into pLKO.1 puro vector by using the experimental method (III), an expression vector obtained thereby was named as pLKO.1-F30-N16-1, and the plasmid expressed F30-N16-1.
293T/17 cells were transfected with pLKO.1-F30-N16-1 plasmid, […] of I-5-14 was added 36 h later so as to label F30-N16-1, cells not expressing the corresponding aptamer served as control, and the labeling effect was detected by using experimental method (V).

[3] = system: F30-N16-1 RNA aptamer molecules; experiment: Binding of F30-N16-1 RNA aptamer molecules with different fluorescent molecules (fluorescence spectrum, activation multiple); assay type: biochemical; settings: for Maximum emission peak (nm) / Maximum excitation peak (nm): complex with F30-N16-1; for Activation Multiple: fluorophore with F30-N16-1
Procedure: as §1
F30-N16-1 RNA aptamer molecules were prepared by using the commonly-used experimental method (I), and were used for detecting basic properties, including fluorescence spectrum and fluorescence activation multiple, of the binding of I-5-14 analogues with N16.

[4] = Spectral properties (excitation, emission, light absorption) of N16-1-I-5-14 complex; assay type: physicochemical; settings: 2 μM I-5-14 with 10 μM N16-1, or 5 μM pure I-5-14
Procedure: In order to detect the spectral properties of N16-1-I-5-14 complex, N16-1 (SEQ ID NO: 1) RNA was prepared by using the commonly-used experimental method (I). 1 μM of I-5-14 was incubated with 5 μM of N16-1. According to the results, the maximum excitation light of N16-1-I-5-14 complex was 512 nm, and the maximum emission light thereof was 574 nm (FIG. 3B).
In order to detect the difference between the light absorption of N16-1-I-5-14 complex and that of I-5-14 fluorophore molecules per se, 2 μM of I-5-14 incubated with 10 μM of N16-1, or 5 μM of pure I-5-14 was used for detecting the light absorption of I-5-14 and that of N16-1-I-5-14 complex respectively.

[5] = system: BL21 (DE3, Star) Escherichia coli strain expressing F30-N16-1; experiment: Labeling of RNA in bacteria by F30-N16-1-I-5-14 complex; assay type: cell-based; settings: F30-N16-1 induced with 1 mM IPTG 4 h; PBS with 2 μM I-5-14
Excerpt: In order to detect the effect of F30-N16-1-I-5-14 in bacteria, a bacterial expression plasmid expressing F30-N16-1 (SEQ ID NO: 2) was constructed first. F30-N16-1 in Example 2 was amplified with primers, pET28a was amplified with primers so as to remove the promoter and polyclonal site region, and then the F30-N16-1 DNA fragment obtained by means of amplification was connected to pET28a linearized vector by using the experimental method (III), and the obtained recombinant plasmid was named as pET28a-T7-F30-N16-1.
BL21 (DE3, Star) Escherichia coli strain was transformed with recombinant plasmid pET28a-T7-F30-N16-1, and monoclone was picked and cultured at 37° C.; when OD600 is about 0.2, 1 mM of IPTG was added to induce the expression of F30-N16-1, and bacteria were collected 4 h later; resuspension was performed with a PBS solution containing 2 μM of I-5-14. BL21 (DE3, Star) Escherichia coli with transformed pET28a empty vector served as control.

[6] = Binding constant of N16-1 and I-5-14; settings: 10 nM N16-1 with I-5-14 of different concentrations
Procedure: In order to detect the binding constant of N16-1 and I-5-14, 10 nM of N16-1 was incubated with I-5-14 of different concentrations, so that fluorescence values thereof could be detected. According to the results, the binding constant of N16-1 and I-5-14 was 15.69 nM (FIG. 3D).

[7] = complex of 2.5 μM N16-1 and 0.5 μM I-5-14

| Compound | Maximum emission peak (nm) [3] [nm] | Maximum excitation peak (nm) [3] [nm] | Activation Multiple [3] | further results |
| --- | --- | --- | --- | --- |
| N16-3: base-modified N16-1, SEQ ID NO: 5, some of the bases modified by 2′-F (GGGCNCCAGGNGCNGCNNCGGCAGGNAACGGACNNAGANCCACNGNACGCCC; some nucleotides 2'-fluoro modified, positions not given here) |  |  |  | fluorescence activation effect of base-modified N16-1 for I-5-14 [1]: significantly activate |
| N16-2: base-modified N16-1, SEQ ID NO: 4, stem-loop structure bases replaced with deoxyribonucleotides (GGGCNCCAGGNGCNGCNNCGGCAGGNAACGGACNNAGANCCACNGNACGCCC; some stem-loop nucleotides deoxyribonucleotides, positions not given here) |  |  |  | fluorescence activation effect of base-modified N16-1 for I-5-14 [1]: significantly activate |
| CN(CCO)c1ccc(/C=C2\SC(=S)NC2=O)cc1 [I-5-14] | 574 | 513 | 123 | labeling effect (fluorescence imaging) [2]: very bright yellow fluorescence; maximum light absorption [4]: 477 nm; fluorescence of bacteria [5]: bright yellow fluorescence; fluorescence intensity of the control ([1]; 0.5 μM I-5-14 without nucleic acid aptamer, same detection conditions): 399 |
| N16-1: nucleic acid aptamer with a sequence SEQ ID NO: 1 (GGGCNCCAGGNGCNGCNNCGGCAGGNAACGGACNNAGANCCACNGNACGCCC; RNA, backbone and the base at N not given here) |  |  |  | Kd [6]: 15.7 nM; fluorescence intensity of the complex ([1]; 2.5 μM N16-1, 0.5 μM I-5-14, excitation 512±10 nm, emission 574 nm±10 nm): 49,088; activation multiple of N16-1 nucleic acid aptamer to I-5-14 fluorophore molecules ([1]; 2.5 μM N16-1, 0.5 μM I-5-14, excitation 512±10 nm, emission 574±10 nm): 123; Activation Multiple ([1]; N16-1 mutants containing a single base mutation): 123; Activation Multiple ([1]; N16-1 mutants containing multi-base mutation): 123; maximum emission peak [1, 7]: 574 nm; maximum excitation peak [1, 7]: 512 nm |
| CN(CCO)c1ccc2cc(/C=C3\SC(=S)NC3=O)sc2c1 [I-5-64] | 665 | 522 | 12 |  |
| CN(CCO)c1ccc(/C=C2\SC(=S)N(N)C2=S)cc1 [I-5-16] | 648 | 615 | 11 |  |
| CC1(C)c2cc(/C=C3\SC(=S)NC3=O)ccc2-c2ccc(N(CCO)CCO)cc21 [I-5-73] | 731 | 681 | 12 |  |
| CN1C(=O)O/C(=C\c2ccc(N(C)C)s2)C1=O [I-5-7] | 504 | 465 | 24 |  |
| CCN1C(=O)S/C(=C\c2ccc3c(c2)C(C)=CC(C)(C)N3C)C1=O [I-5-44] | 549 | 459 | 21 |  |
| O=C1NC(=S)S/C1=C\c1cc2c3c(c1)CCCN3CCC2 [I-5-47] | 607 | 529 | 245 |  |
| CN(C)c1ccc(/C=C2\SC(=S)N(N)C2=O)s1 [I-5-9] | 578 | 552 | 17 |  |
| CN(C)c1cc2sc(/C=C3\SC(=S)NC3=S)cc2s1 [I-5-52] | 725 | 686 | 7 |  |
| CN(CCO)c1ccc2cc(/C=C3\SC(=O)NC3=O)sc2c1 [I-5-65] | 605 | 462 | 35 |  |
